Experimental data reported in ChEMBL document CHEMBL1139749, “Design, synthesis and in vivo activity of 9-(S)-dihydroerythromycin derivatives as potent anti-inflammatory agents” (2006).

The compounds below were run on Mus musculus (assay: Antiinflammatory activity in topically dosed CD1 mouse assessed as inhibition of PMA-induced ear edema at 0.5 mg/ear).
Format: functional

Compared with `CC[C@H]1OC(=O)[C@H](C)[C@@H](O[C@H]2C[C@@](C)(OC)[C@@H](O)[C@H](C)O2)[C@H](C)[C@@H](O[C@H]2O[C@@H](C)C[C@@H](N(C)C(=O)CNCCNCc3ccccc3)[C@@H]2O)[C@](C)(O)C[C@@H](C)[C@H](O)[C@H](C)[C@@H](O)[C@]1(C)O`, `CC[C@H]1OC(=O)[C@H](C)[C@@H](O[C@H]2C[C@@](C)(OC)[C@@H](O)[C@H](C)O2)[C@H](C)[C@@H](O[C@H]2O[C@@H](C)C[C@@H](N(C)C(=O)CNCc3ccccc3)[C@@H]2O)[C@](C)(O)C[C@@H](C)[C@H](O)[C@H](C)[C@@H](O)[C@]1(C)O` is lower in Inhibition: 87% for the first, 71% for the second.

First: CC[C@H]1OC(=O)[C@H](C)[C@@H](O)[C@H](C)[C@@H](O[C@H]2O[C@@H](C)C[C@@H](N(C)CCCNCc3nccs3)[C@@H]2O)[C@](C)(O)C[C@@H](C)[C@H](O)[C@H](C)[C@@H](O)[C@]1(C)O
Second: CC[C@H]1OC(=O)[C@H](C)[C@@H](O)[C@H](C)[C@@H](O[C@H]2O[C@@H](C)C[C@@H](NCCNCCNCc3nccs3)[C@@H]2O)[C@](C)(O)C[C@@H](C)[C@H](O)[C@H](C)[C@@H](O)[C@]1(C)O
The Inhibition of the first is higher: 53% for the first, 45% for the second.

Going from `CC[C@H]1OC(=O)[C@H](C)[C@@H](O[C@H]2C[C@@](C)(OC)[C@@H](O)[C@H](C)O2)[C@H](C)[C@@H](O[C@H]2O[C@@H](C)C[C@@H](N(C)C(=O)CNCCN(C)C)[C@@H]2O)[C@](C)(O)C[C@@H](C)[C@H](O)[C@H](C)[C@@H](O)[C@]1(C)O` to `CC[C@H]1OC(=O)[C@H](C)[C@@H](O[C@H]2C[C@@](C)(OC)[C@@H](O)[C@H](C)O2)[C@H](C)[C@@H](O[C@H]2O[C@@H](C)C[C@@H](N(C)C(=O)CNCCC(C)C)[C@@H]2O)[C@](C)(O)C[C@@H](C)[C@H](O)[C@H](C)[C@@H](O)[C@]1(C)O`, the Inhibition falls from 31% to 18%.

Compared with `CC[C@H]1OC(=O)[C@H](C)[C@@H](O)[C@H](C)[C@@H](O[C@H]2O[C@@H](C)C[C@@H](N(C)C(C)=O)[C@@H]2O)[C@](C)(O)C[C@@H](C)[C@H](O)[C@H](C)[C@@H](O)[C@]1(C)O`, `CC[C@H]1OC(=O)[C@H](C)[C@@H](O[C@H]2C[C@@](C)(OC)[C@@H](O)[C@H](C)O2)[C@H](C)[C@@H](O[C@H]2O[C@@H](C)C[C@@H](N(C)C(C)=O)[C@@H]2O)[C@](C)(O)C[C@@H](C)[C@H](O)[C@H](C)[C@@H](O)[C@]1(C)O` is higher in Inhibition: 66% for the first, 79% for the second.

Going from `CC[C@H]1OC(=O)[C@H](C)[C@@H](O[C@H]2C[C@@](C)(OC)[C@@H](O)[C@H](C)O2)[C@H](C)[C@@H](O[C@H]2O[C@@H](C)C[C@@H](N(C)Cc3ccccc3)[C@@H]2O)[C@](C)(O)C[C@@H](C)[C@H](O)[C@H](C)[C@@H](O)[C@]1(C)O` to `CC[C@H]1OC(=O)[C@H](C)[C@@H](O[C@H]2C[C@@](C)(OC)[C@@H](O)[C@H](C)O2)[C@H](C)[C@@H](O[C@H]2O[C@@H](C)C[C@@H](N(C)CCCNCc3nccs3)[C@@H]2O)[C@](C)(O)C[C@@H](C)[C@H](O)[C@H](C)[C@@H](O)[C@]1(C)O`, the Inhibition rises from 58% to 74%.

Compared with `CC[C@H]1OC(=O)[C@H](C)[C@@H](O[C@H]2C[C@@](C)(OC)[C@@H](O)[C@H](C)O2)[C@H](C)[C@@H](O[C@H]2O[C@@H](C)C[C@@H](NCCNCCNCc3nccs3)[C@@H]2O)[C@](C)(O)C[C@@H](C)[C@H](O)[C@H](C)[C@@H](O)[C@]1(C)O`, `CC[C@H]1OC(=O)[C@H](C)[C@@H](O[C@H]2C[C@@](C)(OC)[C@@H](O)[C@H](C)O2)[C@H](C)[C@@H](O[C@@H]2O[C@H](C)C[C@H](N(C)C)[C@H]2O)[C@](C)(O)C[C@@H](C)C(=O)[C@H](C)[C@@H](O)[C@]1(C)O` [ERYTHROMYCIN] is lower in Inhibition: 43% for the first, 42% for the second.
